Measured values taken from patent publication US20100190722A1, “SUBSTANCE P AND THYROTROPIN RELEASING HORMONE FOR THERAPEUTIC APPLICATIONS” (priority 2007, published 2010).
No end group written: not given here.

What was measured:
[1] = tested on: HIV-1IIIB; assay: HIV-1 antiviral assay in CEM-SS cells (MTS readout); assay type: cell-based
[2] = tested on: HCMV strain AD169; assay: HCMV plaque formation assay in MRC-5 cells
[3] = tested on: IFNγ spleen cells; assay: Th1/Th2 cytokine profiling assay, IFNγ; assay type: cell-based, Balb/c mice; settings: 10 micrograms per ml; Ovalbumin restimulation; 72 hours
Source text: (§1) The Balb/c mice (originated in 1923, it is a popular strain and is used in many different research disciplines. Also classified as an inbred from the production of 20 or more successive brother-sister matings, the Balb/c mouse is albino and small in size) were immunized on Days 1, 15, and 29 with Ovalbumin (Ovalbumin is the main protein found in egg white, commonly used to stimulate an immunological reaction in test animals) in PBS (5 micrograms/injection). On day 50, spleens of the mice were harvested (3 weeks after last boost with Ovalbumin). […] Thereafter, additional Ovalbumin was added to the cells at 10 micrograms/ml for in vitro restimulation of the cells. 72 hours later, cell supernatants were harvested and assayed using the Becton Dickinson Mouse Th1/Th2 Cytokine CBA Kit.

[4] = tested on: A549 cells; assay: Apoptosis prevention assay (C2 ceramide, Annexin-5); assay type: cell-based, human; settings: 10 micrograms per ml, 30 min pretreatment
Procedure: Human A549 cells (carcinomic human alveolar basal epithelial cells) were utilized in the experiments employing the Annexin-5 apoptosis assay. […] A549 cells were pretreated for 30 min with test peptides—10 micrograms per ml—followed by the exposure to C2 ceramide.

[5] = tested on: hepatitis B virus (HBV) ayw strain; assay: HBV experimental assay system (secreted HBV DNA, TaqMan PCR); assay type: cell-based; settings: 10 micrograms per ml; HepG2-2.2.15 cells; six days
[6] = tested on: TNF-a spleen cells; assay: Th1/Th2 cytokine profiling assay, TNF-a; assay type: cell-based, Balb/c mice; settings: 10 micrograms per ml; Ovalbumin restimulation; 72 hours
Source text: as §1

[7] = tested on: RAW 264.7 cells; assay: Phagocytosis assay (Fluorescein-labeled Escherichia coli, flow cytometry); settings: 10 micrograms per ml
[8] = tested on: IL-2 spleen cells; assay: Th1/Th2 cytokine profiling assay, IL-2; assay type: cell-based, Balb/c mice; settings: 10 micrograms per ml; Ovalbumin restimulation; 72 hours
Source text: as §1

[9] = tested on: IL-4 spleen cells; assay: Th1/Th2 cytokine profiling assay, IL-4; assay type: cell-based, Balb/c mice; settings: 10 micrograms per ml; Ovalbumin restimulation; 72 hours
Source text: as §1

[10] = tested on: IL-5 spleen cells; assay: Th1/Th2 cytokine profiling assay, IL-5; assay type: cell-based, Balb/c mice; settings: 10 micrograms per ml; Ovalbumin restimulation; 72 hours
Source text: as §1

Molecule | antiviral activity of positive control compounds (HIV-1) [1] | antiviral activity of positive control compound (HCMV) [2] | IFNγ spleen cells; TH1 response (% of control) [3] | prevention (reduction) of ceramide-induced apoptosis on human lung cells [4] | inhibition of HBV replication as compared to the virus control infection [5] | TNF-a spleen cells; TH1 response (% of control) [6] | increase of the phagocytic activity of murine macrophages [7] | IL-2 spleen cells (% of control) [8] | IL-4 spleen cells; TH2 response (% of control) [9] | IL-5 spleen cells; TH2 response (% of control) [10]
Cc1cn([C@H]2C[C@H](N=[N+]=[N-])[C@@H](CO)O2)c(=O)[nH]c1=O [AZT] | expected levels of antiviral activity |  |  |  |  |  |  |  |  | 
Nc1nc(O)c2ncn(COC(CO)CO)c2n1 [Ganciclovir] |  | expected levels of antiviral activity |  |  |  |  |  |  |  | 
CC(C)(C)NC(=O)[C@@H]1CN(Cc2cccnc2)CCN1C[C@@H](O)C[C@@H](Cc1ccccc1)C(=O)N[C@H]1c2ccccc2C[C@H]1O [indinavir] | expected levels of antiviral activity |  |  |  |  |  |  |  |  | 
Arg-Pro-Lys-Pro-Gln-Gln-Phe-Phe-Gly-Leu-Met-NH2 (RPKPQQFFGLM-NH2) [Peptide 1] |  |  | 136.4 % of control | 10.9% | 30.2% | 101.0 % of control | 28.6% | 113.6 % of control | 106.2 % of control | 64.0 % of control
Pyr-His-Pro-NH2 [Peptide 2] |  |  | 102.0 % of control | 17.2% | no effect | 110.7 % of control | 31.4% | 0.0 % of control | 106.2 % of control | 67.5 % of control
